Laboratory results taken from patent publication US6849598B1, “Therapeutic compositions comprising bactericidal/permeability-increasing (BPI) protein products” (XOMA, priority 1995, dated 2005).
≈ marks a conversion by molar mass, not a printed value. Where two headings read alike, the source gives them in different places.

Key:
E. faecium = assay: Antibiotic susceptibility (MIC, Sensititre Trays) with rBPI21 poloxamer formulations; format: cell-based; conditions: for MIC: Enterococcus faecium, read-out: Minimum Inhibitory Concentration
Protocol: The effect of therapeutic compositions of rBPI21 formulated with poloxamer, with or without EDTA, was evaluated on the antibiotic susceptibility of the multiple drug resistant A. baumannii, S. pneumoniae, E. faecium and P. aeruginosa organisms of Example 5. Therapeutic compositions were prepared containing 2 mg/mL rBPI21, (5 mM sodium citrate, 150 mM NaCl) with a 0.2% (w/v) concentration of PLURONIC F68, P103, P104, P105 or P123. The effect on the antibiotic susceptibility of the organisms was determined in Mueller-Hinton Broth plus Cations (CSMHB, Remel), or 40% pooled human serum in CSMHB (Sigma, St. Louis, Mo.), as follows.
Isolated colonies of the organism from overnight cultures were suspended in Microscan® Inoculum Water to a concentration equivalent to a 0.5 McFarland Standard (approximately 1×10^8 CFU/ml), determined using a Microscan® turbidimeter. Aliquots were transferred to either CSMHB or 40% pooled human serum in CSMHB. Each tube contained either a final concentration of 16 μg/mL rBPI21 or an equivalent volume of control buffer. Minimal inhibitory concentrations (MIC) for each antibiotic tested, i.e. the lowest concentration of antibiotic which inhibits visible growth, were determined using gram-negative (MB and MC) and gram-positive (MA) Sensititre Trays (Radiometer America, Westlake, Ohio), which allow for the rapid and simultaneous survey of a broad spectrum of standard antibiotics. Any other antimicrobial panel systems known in the art, such as the Microscan® (Dade Microscan, Sacramento, Calif.), Pasco (DIFCO, Detroit, Mich.) and Alamar (Alamar, Sacramento, Calif.) systems, may alternatively be used to assay for antibiotic susceptibility.
Tables 12-15 below display a summary of the results of the antibiotic screening panels, reported for each strain tested as the MIC of the tested antibiotics in the presence of the indicated rBPI21 therapeutic composition. The antibiotic susceptibility standards (interpretation of an MIC as clinically resistant (R), intermediate (I) or susceptible (S) according to NCCLS standards) applicable to the organism tested appear in superscript next to the MIC.

[1] = system: P. aeruginosa (ATCC 19660); assay: Antibiotic susceptibility (MIC, Microscan® MIC Plus Type 2 panel) with rBPI21/P123 and EDTA; format: cell-based; parameters: key to susceptibility interpretation of MIC (superscript): R: resistant; I: intermediate; S: susceptible
Protocol: In additional experiments, a BPI protein product, rBPI21, was formulated with an anti-bacterial activity enhancing poloxamer, specifically PLURONIC P123, and with various concentrations of EDTA, and was evaluated for its effect on the antibiotic susceptibility of a Pseudomonas aeruginosa (ATCC 19660). Antibiotic susceptibility was determined using Microscan® panel plates (Dade Microscan, West Sacramento, Calif.) that allow simultaneous determination of minimum inhibitory concentrations for a number of different antibiotics.
The antimicrobial susceptibility tests performed on the Microscan® panel plates are miniaturizations of the broth dilution susceptibility test. Antimicrobial agents are serially diluted in Mueller-Hinton broth (supplemented with calcium and magnesium, or with sodium chloride for oxacillin, or with thymidine phosphorylase for trimethoprim, sulfamethoxazole and trimethoprim/ sulfamethoxazole) to concentrations bridging the range of clinical interest. One well on the 96-well Microscan® plate is a growth control well that contains dehydrated broth only. The remaining wells contain dehydrated broth and antibiotic (or broth and biochemical reagent indicator), which is rehydrated to the desired concentration by inoculation of a standardized suspension of test organism. The chromogenic biochemical agent indicators are used to identify and characterize the species of bacteria based on detection of pH changes and substrate utilization. […] Gram-negative and gram positive organisms may be tested using any of the Microscan® panel plates (Microscan®, Dade Microscan, West Sacramento, Calif.). In these experiments with P. aeruginosa, the MIC Plus Type 2 panel plates were used. The concentrations of antibiotics tested in this panel plate are shown below in Table 16. The antibiotic susceptibility standards (interpretation of an MIC as resistant, intermediate or susceptible according to Microscan®'s NCCLS-derived standards) applicable to the gram-negative organisms that may be tested in each panel plate appear below in Table 16A.
For these experiments with P. aeruginosa, the following procedure was performed: The organism was streaked onto TSA plates (Remel, Lenexa, Kans.) and incubated for 18-24 hours overnight. Well-isolated A, colonies from the plates were emulsified in 3 ml of sterile Inoculum Water d(catalog no. B1015-2, MicrosScan® system, Dade Microscan, West Sacramento, Calif.) to a final turbidity equivalent to 0.5 McFarland Barium Sulfate standard. This cell suspension was vortexed for 2 to 3 seconds and 100 μl was transferred to glass tubes containing 25 ml of Inoculum Water with Pluronic-D (catalog no. B1015-7, MicroScan® system, Dade Microscan, West Sacramento, Calif.) (hereinafter “Pluronic Inoculum Water”), or 25 ml of Pluronic Inoculum Water into which rBPI21 in 0.2% PLURONIC P123, 0.002% TWEEN 80, 5mM sodium citrate, 150 mM NaCl (“rBPI21/P123”) had been diluted to 64 μg/ml rBPI21.
The 25 ml of this inoculum containing rBPI21 was mixed by inversion and poured into a tray. The inoculum was drawn up into a manual 96-well pipetting system (RENOK^− rehydrator-inoculator system, Dade Microscan, West Sacramento, Calif.) designed for use with the Microscan® panel plates, and 110 μl of the inoculum was delivered to each well of a Microscan® MIC Plus Type 2 panel plate. When added to the wells, this inoculum achieves a final bacterial concentration of 4×10^5 to 7×10^5 CFU/ml. The panel plates were then incubated at 35° C. for 15-24 hours and read visually for cell growth.
No growth was defined as a slight whiteness in the well or a clear broth. Growth appeared as turbidity which could take the form of a white haze throughout the well, a white button in the center of the well, or a fine granule growth throughout the well. All wells were read against a black indirectly lighted background. Visual results of the biochemical reactions were read into a database for bacterial identification.

[2] = CSMHB, 16 μg/mL rBPI21 with F68
[3] = CSMHB, 16 μg/mL rBPI21 with P103
[4] = CSMHB, 16 μg/mL rBPI21 with P104
[5] = CSMHB, 16 μg/mL rBPI21 with P105
[6] = CSMHB, 16 μg/mL rBPI21 with P123
[7] = Serum, 16 μg/mL rBPI21 with F68
[8] = Serum, 16 μg/mL rBPI21 with P103
[9] = Serum, 16 μg/mL rBPI21 with P104
[10] = Serum, 16 μg/mL rBPI21 with P105
[11] = Serum, 16 μg/mL rBPI21 with P123
[12] = rBPI21/P123 at 64 μg/ml rBPI21, With 0% EDTA
[13] = rBPI21/P123 at 64 μg/ml rBPI21, With 0.01% EDTA
[14] = rBPI21/P123 at 64 μg/ml rBPI21, With 0.05% EDTA
[15] = rBPI21/P123 at 64 μg/ml rBPI21, With 0.1% EDTA

Compound | susceptibility interpretation of MIC (superscript) (E. faecium; [2]) | susceptibility interpretation of MIC (superscript) (E. faecium; [3]) | susceptibility interpretation of MIC (superscript) (E. faecium; [4]) | susceptibility interpretation of MIC (superscript) (E. faecium; [5]) | susceptibility interpretation of MIC (superscript) (E. faecium; [6]) | susceptibility interpretation of MIC (superscript) (E. faecium; CSMHB, Control (no BPI)) | MIC (E. faecium; [2]) [µg/mL] | MIC (E. faecium; [3]) [µg/mL] | MIC (E. faecium; [4]) [µg/mL] | MIC (E. faecium; [5]) [µg/mL] | MIC (E. faecium; [6]) [µg/mL] | MIC (E. faecium; CSMHB, Control (no BPI)) [µg/mL] | susceptibility interpretation of MIC (superscript) (E. faecium; [7]) | susceptibility interpretation of MIC (superscript) (E. faecium; [8]) | susceptibility interpretation of MIC (superscript) (E. faecium; [9]) | susceptibility interpretation of MIC (superscript) (E. faecium; [10]) | susceptibility interpretation of MIC (superscript) (E. faecium; [11]) | susceptibility interpretation of MIC (superscript) (E. faecium; Serum, Control (no BPI)) | further results
CO[C@H]1/C=C/O[C@@]2(C)Oc3c(C)c(O)c4c(O)c(c(/C=N/N5CCN(C)CC5)c(O)c4c3C2=O)NC(=O)/C(C)=C\C=C\[C@H](C)[C@H](O)[C@@H](C)[C@@H](O)[C@@H](C)[C@H](OC(C)=O)[C@@H]1C [Rifampicin] | S | S | S | S | S | R | 0.5 (≈ 0.608 µM) | 0.5 (≈ 0.608 µM) | 0.5 (≈ 0.608 µM) | 0.5 (≈ 0.608 µM) | 0.5 (≈ 0.608 µM) | 4 (≈ 4.86 µM) | S | S | R | S | S | R | MIC (E. faecium; [7]): 1 µg/mL (≈ 1.22 µM); MIC (E. faecium; [8]): 1 µg/mL (≈ 1.22 µM); MIC (E. faecium; [9]): > 4 µg/mL; MIC (E. faecium; [10]): 0.5 µg/mL (≈ 0.608 µM); MIC (E. faecium; [11]): 0.5 µg/mL (≈ 0.608 µM); MIC (E. faecium; Serum, Control (no BPI)): 4 µg/mL (≈ 4.86 µM)
O=C(O)c1cn(C2CC2)c2cc(N3CCNCC3)c(F)cc2c1=O [Ciprofloxacin] | S | S | S | S | S | I | 1 (≈ 3.02 µM) | < 0.5 | 1 (≈ 3.02 µM) | 1 (≈ 3.02 µM) | 1 (≈ 3.02 µM) | 2 (≈ 6.04 µM) | S | I | I | I | I | I | Minimum Inhibitory Concentration of Antibiotic ([1]; Control (No BPI21)): < 0.25 µg/mL; susceptibility interpretation of MIC (superscript) ([1]; Control (No BPI21)): S; Minimum Inhibitory Concentration of Antibiotic [1, 12]: < 0.25 µg/mL; susceptibility interpretation of MIC (superscript) [1, 12]: S; Minimum Inhibitory Concentration of Antibiotic [1, 13]: < 0.25 µg/mL; susceptibility interpretation of MIC (superscript) [1, 13]: S; Minimum Inhibitory Concentration of Antibiotic [1, 14]: < 0.25 µg/mL; susceptibility interpretation of MIC (superscript) [1, 14]: S; Minimum Inhibitory Concentration of Antibiotic [1, 15]: < 0.25 µg/mL; susceptibility interpretation of MIC (superscript) [1, 15]: S
